The values below come from patent US12084472B2 (Ardelyx, Inc., priority 2015, dated 2024).

Some results are limits rather than exact numbers.

The assay deals with T1, human TGR5 (Homo sapiens, UniProt Q8TDU6).
T1 construct: expressed in transfected cells; host or cells: HEK293
T1 sequence (Q8TDU6 1-330): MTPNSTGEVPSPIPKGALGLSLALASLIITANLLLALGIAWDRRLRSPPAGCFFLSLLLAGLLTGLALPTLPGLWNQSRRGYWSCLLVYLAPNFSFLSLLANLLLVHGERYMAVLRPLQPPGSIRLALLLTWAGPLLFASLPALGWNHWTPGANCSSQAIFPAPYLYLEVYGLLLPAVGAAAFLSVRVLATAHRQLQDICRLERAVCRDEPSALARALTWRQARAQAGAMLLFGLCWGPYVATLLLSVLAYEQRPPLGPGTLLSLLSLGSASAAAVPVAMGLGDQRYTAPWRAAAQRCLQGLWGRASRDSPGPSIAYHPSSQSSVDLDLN
Kind of assay: Cell-based TGR5 assay (cAMP generation, HTRF). The settings on record: HEK293 cells stably transfected with human TGR5; cAMP by HTRF; 30 minutes at 37° C.; read-out: pEC50 Human TGR5 (converted). A digest of the protocol:
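Read-out was HTRF detection of cAMP, converted to concentration via a standard curve and fitted (3-parameter logistic) for pEC50 and maximal response. Agonist stimulation used HEK293 cells stably transfected with human TGR5, incubated 30 min at 37° C in IBMX-containing buffer at 0.05 nM to 10 μM compound.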
With `O=C(COC1CN(S(=O)(=O)c2ccc(Cl)c(COC3(c4cnccc4-c4ccccc4OC4CC4)CC3)c2)C1)NC[C@H](O)[C@@H](O)[C@H](O)[C@H](O)CO` [Compound I-454, 2-({1-[4-chloro-3-({1-[4-(2-cyclopropoxyphenyl)pyridin-3-yl]cyclopropoxy}methyl)benzenesulfonyl]azetidin-3-yl}oxy)-N-[(2S,3R,4R,5R)-2,3,4,5,6-pentahydroxyhexyl]acetamide], the EC50 was 126 to 1000 nM.

For the molecule `O=C(COCC1CCN(S(=O)(=O)c2ccc(Cl)c(COC3(c4cnccc4-c4ccccc4OC4CC4)CC3)c2)C1)NC[C@H](O)[C@@H](O)[C@H](O)[C@H](O)CO` (stereo partly drawn) [Compound I-455, 2-({1-[4-chloro-3-({1-[4-(2-cyclopropoxyphenyl)pyridin-3-yl]cyclopropoxy}methyl)benzenesulfonyl]pyrrolidin-3-yl}methoxy)-N-[(2S,3R,4R,5R)-2,3,4,5,6-pentahydroxyhexyl]acetamide], the EC50 was under 100 nM.

With `O=C(COCC1CN(S(=O)(=O)c2ccc(Cl)c(COC3(c4cnccc4-c4ccccc4OC4CC4)CC3)c2)C1)NC[C@H](O)[C@@H](O)[C@H](O)[C@H](O)CO` [Compound I-456, 2-({1-[4-chloro-3-({1-[4-(2-cyclopropoxyphenyl)pyridin-3-yl]cyclopropoxy}methyl)benzenesulfonyl]azetidin-3-yl}methoxy)-N-[(2S,3R,4R,5R)-2,3,4,5,6-pentahydroxyhexyl]acetamide], the EC50 is under 100 nM.

With `CS(=O)(=O)CCN(CCCCNS(=O)(=O)c1ccc(Cl)c(COC2(c3cnccc3-c3ccccc3OC3CC3)CC2)c1)C(=O)[C@@H](O)[C@@H](O)[C@H](O)[C@@H](O)CO` [Compound I-457, (2S,3S,4R,5S)-N-{4-[4-chloro-3-({1-[4-(2-cyclopropoxyphenyl)pyridin-3-yl]cyclopropoxy}methyl)benzenesulfonamido]butyl}-2,3,4,5,6-pentahydroxy-N-(2-methanesulfonylethyl) hexanamide], the EC50 was under 100 nM.

Take `CN(CCCCNC(=O)[C@@H](O)[C@@H](O)[C@H](O)[C@@H](O)CO)S(=O)(=O)c1ccc(Cl)c(COC2(c3cnccc3-c3ccccc3OC3CC3)CC2)c1` [Compound I-458, (2S,3S,4R,5S)-2,3,4,5,6-pentahydroxy-N-{4-[N-methyl4-chloro-3-({1-[4-(2-cyclopropoxyphenyl)pyridin-3-yl]cyclopropoxy}methyl)benzenesulfonamido]butyl}hexanamide]: the EC50 was under 100 nM.

On to `CN(CCCCN(CCS(C)(=O)=O)C(=O)[C@@H](O)[C@@H](O)[C@H](O)[C@@H](O)CO)S(=O)(=O)c1ccc(Cl)c(COC2(c3cnccc3-c3ccccc3OC3CC3)CC2)c1` [Compound I-459, (2S,3S,4R,5S)-2,3,4,5,6-pentahydroxy-N-(2-methanesulfonylethyl)-N-{4-[N-methyl4-chloro-3-({1-[4-(2-cyclopropoxyphenyl)pyridin-3-yl]cyclopropoxy}methyl)benzenesulfonamido]butyl}hexanamide], for which the EC50 is under 100 nM.

Consider `CN(CCCCNS(=O)(=O)c1ccc(Cl)c(COC2(c3cnccc3-c3ccccc3OC3CC3)CC2)c1)C(=O)[C@@H](O)[C@@H](O)[C@H](O)[C@@H](O)CO` [Compound I-460, (2S,3S,4R,5S)-N-{4-[4-chloro-3-({1-[4-(2-cyclopropoxyphenyl)pyridin-3-yl]cyclopropoxy}methyl)benzenesulfonamido]butyl}-2,3,4,5,6-pentahydroxy-N-methylhexanamide], for which the EC50 was under 100 nM.

In the case of `CN(CCCCN(C)S(=O)(=O)c1ccc(Cl)c(COC2(c3cnccc3-c3ccccc3OC3CC3)CC2)c1)C(=O)[C@@H](O)[C@@H](O)[C@H](O)[C@@H](O)CO` [Compound I-461, (2S,3S,4R,5S)-2,3,4,5,6-pentahydroxy-N-methyl-N-{4-[N-methyl4-chloro-3-({1-[4-(2-cyclopropoxyphenyl)pyridin-3-yl]cyclopropoxy}methyl)benzenesulfonamido]butyl}hexanamide], the EC50 is under 100 nM.

Consider `O=C(NCCC1CCN(S(=O)(=O)c2ccc(Cl)c(COC3(c4cnccc4-c4ccccc4OC4CC4)CC3)c2)CC1)[C@@H](O)[C@@H](O)[C@H](O)[C@@H](O)CO` [Compound I-462, (2S,3S,4R,5S)-N-(2-{1-[4-chloro-3-({1-[4-(2-cyclopropoxyphenyl)pyridin-3-yl]cyclopropoxy}methyl)benzenesulfonyl]piperidin-4-yl}ethyl)-2,3,4,5,6-pentahydroxyhexanamide], for which the EC50 is under 100 nM.

For the molecule `CCN(CCCCN)S(=O)(=O)c1ccc(Cl)c(COC2(c3cnccc3-c3ccccc3OC3CC3)CC2)c1` [Compound I-463, N-(4-aminobutyl)-4-chloro-3-({1-[4-(2-cyclopropoxyphenyl)pyridin-3-yl]cyclopropoxy}methyl)-N-ethylbenzene-1-sulfonamide], the EC50 was under 100 nM.

With `CN(CCCCNC(=O)NC[C@H](O)[C@@H](O)[C@H](O)[C@H](O)CO)S(=O)(=O)c1ccc(Cl)c(COC2(c3cnccc3-c3ccccc3OC3COC3)CC2)c1` [Compound I-464, 1-(4-{N-methyl4-chloro-3-[(1-{4-[2-(oxetan-3-yloxy)phenyl]pyridin-3-yl}cyclopropoxy)methyl]benzenesulfonamido}butyl)-3-[(2S,3R,4R,5R)-2,3,4,5,6-pentahydroxyhexyl]urea], the EC50 was under 100 nM.

Regarding `CCN(CCCCNC(=O)N[C@@H](CO)[C@@H](O)[C@H](O)[C@H](O)CO)S(=O)(=O)c1ccc(Cl)c(COC2(c3cnccc3-c3ccccc3OC3CC3)CC2)c1` [Compound I-465, 1-{4-[N-ethyl4-chloro-3-({1-[4-(2-cyclopropoxyphenyl)pyridin-3-yl]cyclopropoxy}methyl)benzenesulfonamido]butyl}-3-[(2S,3R,4S,5R)-1,3,4,5,6-pentahydroxyhexan-2-yl]urea], the EC50 was under 100 nM.

`CN(CCCCNC(=O)NC[C@H](O)[C@@H](O)[C@H](O)[C@H](O)CO)S(=O)(=O)c1cc(COC2(c3cnccc3-c3ccccc3OC3CC3)CC2)c(Cl)cc1F` [Compound I-466, 1-{4-[N-methyl4-chloro-5-({1-[4-(2-cyclopropoxyphenyl)pyridin-3-yl]cyclopropoxy}methyl)-2-fluorobenzenesulfonamido]butyl}-3-[(2S,3R,4R,5R)-2,3,4,5,6-pentahydroxyhexyl]urea]: the EC50 was under 100 nM.

Take `CN(CCCCNC(=O)NC[C@H](O)[C@@H](O)[C@H](O)[C@H](O)CO)S(=O)(=O)c1cc(COC2(c3cnccc3-c3ccccc3OC3CC3)CC2)c(Cl)cc1Cl` [Compound I-467, 1-{4-[N-methyl2,4-dichloro-5-({1-[4-(2-cyclopropoxyphenyl)pyridin-3-yl]cyclopropoxy}methyl)benzenesulfonamido]butyl}-3-[(2S,3R,4R,5R)-2,3,4,5,6-pentahydroxyhexyl]urea]: the EC50 was under 100 nM.

Consider `CN(CCCCNC(=O)NC[C@H](O)[C@@H](O)[C@H](O)[C@H](O)CO)S(=O)(=O)c1ccc(C(F)(F)F)c(CNC2(c3cnccc3-c3ccccc3OC3CC3)CC2)c1` [Compound I-468, 1-(4-{N-methyl3-[({11-[4-(2-cyclopropoxyphenyl)pyridin-3-yl]cyclopropyl}amino)methyl]-4-(trifluoromethyl)benzenesulfonamido}butyl)-3-[(2S,3R,4R,5R)-2,3,4,5,6-pentahydroxyhexyl]urea], for which the EC50 was 126 to 1000 nM.

With `CN(CCCCNC(=O)NC[C@H](O)[C@@H](O)[C@H](O)[C@H](O)CO)S(=O)(=O)c1ccc(C(F)(F)F)c(COC2(c3cnccc3-c3ccccc3OC3CC3)CC2)c1` [Compound I-469, 1-{4-[N-methyl3-({1-[4-(2-cyclopropoxyphenyl)pyridin-3-yl]cyclopropoxy}methyl)-4-(trifluoromethyl)benzenesulfonamido]butyl}-3-[(2S,3R,4R,5R)-2,3,4,5,6-pentahydroxyhexyl]urea], the EC50 is under 100 nM.

As to `CN(CCCCNC(=O)N[C@@H](CO)[C@@H](O)[C@H](O)[C@H](O)CO)S(=O)(=O)c1ccc(C(F)(F)F)c(CNC2(c3cnccc3-c3ccccc3OC3CC3)CC2)c1` [Compound I-470, 1-(4-{N-methyl3-[({1-[4-(2-cyclopropoxyphenyl)pyridin-3-yl]cyclopropyl}amino)methyl]-4-(trifluoromethyl)benzenesulfonamido}butyl)-3-[(2S,3R,4S,5R)-1,3,4,5,6-pentahydroxyhexan-2-yl]urea], the EC50 is 126 to 1000 nM.

In the case of `CN(CCCCNC(=O)NC[C@H](O)[C@@H](O)[C@H](O)[C@H](O)CO)S(=O)(=O)c1ccc(Cl)c(CNC2(c3cnccc3-c3ccccc3OC3CC3)CC2)c1` [Compound I-471, 1-(4-{N-methyl4-chloro-3-[({1-[4-(2-cyclopropoxyphenyl)pyridin-3-yl]cyclopropyl}amino)methyl]benzenesulfonamido}butyl)-3-[(2S,3R,4R,5R)-2,3,4,5,6-pentahydroxyhexyl]urea], the EC50 is under 100 nM.

For `CN(CCCCNC(=O)N[C@@H](CO)[C@@H](O)[C@H](O)[C@H](O)CO)S(=O)(=O)c1ccc(Cl)c(CNC2(c3cnccc3-c3ccccc3OC3CC3)CC2)c1` [Compound I-472, 1-(4-{N-methyl4-chloro-3-[({1-[4-(2-cyclopropoxyphenyl)pyridin-3-yl]cyclopropyl}amino)methyl]benzenesulfonamido}butyl)-3-[(2S,3R,4S,5R)-1,3,4,5,6-pentahydroxyhexan-2-yl]urea], the EC50 was under 100 nM.
